Results: article PMC10247784, “Physiological activation of human and mouse bitter taste receptors by bile acids” (Communications Biology, 2023)

Target: T1, mouse Tas2r144 (Mus musculus, UniProt Q7TQB8)
T1 construct: expressed in transfected cells; host or cells: HEK293T-Gα16gust44
Assay: Calcium imaging assay (FLIPR), HEK293T-Gα16gust44 cells transfected with mouse Tas2r144
Assay type: cell-based
Experimental: This set of bile acids was chosen because of their commercial availability in high purities, their diversity within the class of bile acids and their previous detection and quantitation in human blood. Stock solutions were prepared in DMSO.
As basal growth medium for the HEK293T-Gα16gust44 cell line[17],[59] served Dulbecco’s modified eagle medium (DMEM) (Thermo Fisher Scientific, Darmstadt, Germany) supplemented with 10 % fetal bovine serum (Sigma-Aldrich, Steinheim, Germany), 2 mM L-glutamine (Sigma-Aldrich, Steinheim, Germany), 100 units/ml penicillin (Sigma Aldrich, Steinheim, Germany) and 100 µg/ml streptomycin (Sigma Aldrich, Steinheim, Germany). Growth conditions were 37 °C, 5 % CO2 and saturated air-humidity[60].
HEK293T-Gα16gust44 cells were seeded on poly-D-lysine (10 µg/ml) coated 96-well plates to reach a confluence of 40-60 % the next day. For transient transfection 150 ng of plasmid DNA containing the receptor of interest and 0.3 µl lipofectamine 2000 (Thermo Fisher Scientific, Darmstadt, Germany) per well were used and transfection took place according to the manual of lipofectamine 2000. […] The empty vector DNA (mock) was transfected as negative control[14],[41].
Cells were loaded using the calcium-sensitive fluorescent dye Fluo-4-AM (Abcam, Cambridge, Great Britain) in the presence of 2.5 mM probenecid (Sigma-Aldrich, Steinheim, Germany) the day after transfection[13],[41]. 1 h after loading, cells were washed with C1 buffer using a BioTek Cell Washer, incubated in the dark for half an hour and washed again. For automated agonist application and measurement of fluorescence changes, a FLIPR^TETRA device (Molecular Devices, San José, United States) was used. Viability of cells was tested by application of 100 nM Somatostatin 14 (Bachem, Bubendorf, Switzerland)[42].
Measured data were negative control corrected by subtracting the signal of the mock-transfected cells and exported to Microsoft Excel using the FLIPR software ScreenWorks 4.2. In Microsoft Excel software, standardization of maximum fluorescence intensities to the basal fluorescence and normalization to the buffer-only control was done to calculate the relative fluorescence changes (ΔF/F).
Initial screening experiments performed in duplicate wells were confirmed by at least one replication and representative traces were selected for display. All dose-response relationships were determined by three independent experiments (biological replicates) performed in duplicates (technical replicates). Threshold concentrations, defined as lowest substance concentrations leading to statistically significant elevated fluorescence changes in receptor-transfected cells compared with empty vector-transfected cells, were determined using SigmaPlot with Student’s t-test to evaluate statistical significance (p < 0.01).

T1 sequence (Q7TQB8 whole entry): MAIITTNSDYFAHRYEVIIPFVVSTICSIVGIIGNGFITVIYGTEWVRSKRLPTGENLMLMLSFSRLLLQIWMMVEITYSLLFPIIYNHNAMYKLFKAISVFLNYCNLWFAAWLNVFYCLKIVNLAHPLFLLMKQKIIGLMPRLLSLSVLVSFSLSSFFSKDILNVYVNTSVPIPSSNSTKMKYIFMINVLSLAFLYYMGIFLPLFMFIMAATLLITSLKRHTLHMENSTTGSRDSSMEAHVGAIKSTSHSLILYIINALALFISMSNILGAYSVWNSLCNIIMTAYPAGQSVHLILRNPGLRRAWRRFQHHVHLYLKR

## C[C@H](CCC(=O)NCCS(=O)(=O)O)[C@H]1CC[C@H]2[C@@H]3CC[C@@H]4C[C@H](O)CC[C@]4(C)[C@H]3CC[C@]12C [Taurolithocholic Acid, taurolithocholic acid]
Time 0 s
  RLU: 0 RLU
Time 2 s
  RLU: 14.6538 RLU
Time 4 s
  RLU: 0.2718 RLU
Time 6 s
  RLU: -11.922 RLU
Time 8 s
  RLU: 1.321 RLU
Time 12 s
  RLU: 10.4417 RLU
Time 14 s
  RLU: -10.556 RLU
Time 16 s
  RLU: -6.199 RLU
Time 18 s
  RLU: 24.6697 RLU
Time 18.781 s
  RLU: 60.5615 RLU
Time 20.781 s
  RLU: -19.5171 RLU
Time 22.781 s
  RLU: -4.009 RLU
Time 24.781 s
  RLU: -20.7725 RLU
Time 26.781 s
  RLU: 1.348 RLU
Time 28.781 s
  RLU: -0.7767 RLU
Time 30.781 s
  RLU: 41.688 RLU
Time 32.781 s
  RLU: 71.1245 RLU
Time 34.781 s
  RLU: 105.382 RLU
Time 36.781 s
  RLU: 151.604 RLU
Time 38.781 s
  RLU: 184.237 RLU
Time 40.781 s
  RLU: 248.501 RLU
Time 42.781 s
  RLU: 269.502 RLU
Time 44.781 s
  RLU: 268.298 RLU
Time 46.781 s
  RLU: 327.359 RLU
Time 48.781 s
  RLU: 341.375 RLU
Time 50.781 s
  RLU: 358.126 RLU
Time 52.781 s
  RLU: 372.318 RLU
Time 54.781 s
  RLU: 375.128 RLU
Time 56.781 s
  RLU: 360.867 RLU
Time 58.781 s
  RLU: 388.738 RLU
Time 60.781 s
  RLU: 413.492 RLU
Time 62.781 s
  RLU: 416.863 RLU
Time 64.781 s
  RLU: 424.583 RLU
Time 66.781 s
  RLU: 428.264 RLU
Time 68.781 s
  RLU: 426.421 RLU
Time 70.781 s
  RLU: 448.262 RLU
Time 72.781 s
  RLU: 417.687 RLU
Time 74.781 s
  RLU: 456.073 RLU
Time 76.781 s
  RLU: 430.589 RLU
Time 78.781 s
  RLU: 445.771 RLU
Time 80.781 s
  RLU: 460.032 RLU
Time 82.781 s
  RLU: 446.511 RLU
Time 84.781 s
  RLU: 409.522 RLU
Time 86.781 s
  RLU: 409.191 RLU
Time 88.781 s
  RLU: 405.957 RLU
Time 90.781 s
  RLU: 381.655 RLU
Time 92.781 s
  RLU: 387.142 RLU
Time 94.781 s
  RLU: 402.42 RLU
Time 96.781 s
  RLU: 404.326 RLU
Time 98.781 s
  RLU: 373.324 RLU
Time 100.781 s
  RLU: 389.827 RLU
Time 102.781 s
  RLU: 378.133 RLU
Time 104.781 s
  RLU: 393.124 RLU
Time 106.781 s
  RLU: 394.729 RLU
Time 108.781 s
  RLU: 385.581 RLU
Time 110.781 s
  RLU: 380.059 RLU
Time 112.781 s
  RLU: 389.586 RLU
Time 114.781 s
  RLU: 357.6 RLU
Time 116.781 s
  RLU: 386.704 RLU
Time 118.781 s
  RLU: 385.665 RLU
Time 120.781 s
  RLU: 364.459 RLU
Time 122.781 s
  RLU: 361.618 RLU
Time 124.781 s
  RLU: 373.746 RLU
Time 126.781 s
  RLU: 327.57 RLU
Time 128.781 s
  RLU: 359.155 RLU
Time 130.781 s
  RLU: 325.368 RLU
Time 132.781 s
  RLU: 293.828 RLU
Time 134.781 s
  RLU: 312.409 RLU
Time 136.781 s
  RLU: 298.284 RLU
Time 137.578 s
  RLU: 290.936 RLU
Time 143.578 s
  RLU: 296.494 RLU
Time 149.578 s
  RLU: 267.674 RLU
Time 155.578 s
  RLU: 285.393 RLU
Time 161.578 s
  RLU: 243.081 RLU
Time 167.578 s
  RLU: 210.334 RLU
Time 173.578 s
  RLU: 225.862 RLU
Time 179.578 s
  RLU: 201.092 RLU
Time 185.578 s
  RLU: 199.988 RLU
Time 191.578 s
  RLU: 157.165 RLU
Time 197.578 s
  RLU: 150.89 RLU
Time 203.578 s
  RLU: 157.65 RLU
Time 209.578 s
  RLU: 119.607 RLU
Time 215.578 s
  RLU: 114.651 RLU
Time 221.578 s
  RLU: 111.289 RLU
Time 227.578 s
  RLU: 125.554 RLU
Time 233.578 s
  RLU: 124.837 RLU
Time 239.578 s
  RLU: 148.185 RLU
Time 245.578 s
  RLU: 121.449 RLU
Time 293.578 s
  RLU: 139.355 RLU
Time 299.578 s
  RLU: 114.827 RLU
Time 305.578 s
  RLU: 107.043 RLU
Time 311.578 s
  RLU: 92.604 RLU
Time 317.578 s
  RLU: 88.3008 RLU
Time 323.578 s
  RLU: 90.2384 RLU
Time 329.578 s
  RLU: 71.9932 RLU
Time 335.578 s
  RLU: 67.9746 RLU
Time 341.578 s
  RLU: 66.5352 RLU
Time 347.578 s
  RLU: 80.5392 RLU
Time 353.578 s
  RLU: 85.9834 RLU
Time 359.578 s
  RLU: 89.3996 RLU
P < 0.01 vs empty vector
  Activation threshold concentration Tas2r144: 3 µM
